Results published in patent US20020103111A1, “Inhibitors of MAdCAM-1-mediated interactions and methods of use therefor” (Millennium Pharmaceuticals, Inc., priority 1996, published 2002).
Where two headings read alike, the source gives them in different places. Bridge positions count the residues as written; N and C are the ends. Square brackets hold non-standard residues; d marks the D form. Ends that are not written are not given here. Peptide text beside a SMILES is read from it. * marks the point of attachment. Butanoyl(4-pyren-1-yl) = O=C(CCCc1ccc2ccc3cccc4ccc1c2c34)*; NMeL = CN[C@@H](CC(C)C)C(=O)O

Target: T1, murine MAdCAM-1 (MAdCAM-1/mCk fusion protein); α4β7-bearing HUT 78 cells (Homo sapiens, UniProt P13612+P26010)
T1 construct: host or cells: HUT 78 cells (endogenous α4β7); The MAdCAM-1/mCk partner was made in house in baculovirus-infected Sf9 insect cells, used as neat supernatant and captured by rat anti-mCk antibody
Test: Adhesion of HUT 78 cells to MAdCAM-1/mCk fusion protein bound via capture antibody
Format: cell-based
Details: for % Adhesion Inhibition 500 μM: 500 μM compound; for IC50: HUT 78 cell adhesion to MAdCAM-1/mCk, average of two determinations
Method: The compounds of the present invention were evaluated for their biological properties.
A soluble fusion protein comprising murine MAdCAM-1 was produced in a baculovirus expression system and used in the adhesion assay. A fusion gene in which sequences encoding the signal peptide and extracellular domain of murine MAdCAM-1 were fused to sequences encoding a constant region of the murine kappa light chain (mCk) was constructed, and cloned into a baculovirus shuttle vector. Fusion protein produced from the resulting construct contained the integrin binding sequences of murine MAdCAM-1 at the amino-terminus, and the mCk sequence at the carboxy-terminus. Recombinant baculovirus encoding the fusion protein was harvested from infected Sf9 insect cells.
Human T-cell lymphoma cells (HUT 78 cells) activated with Mn^+2 were used for the adhesion assay in a 96-well format. HUT 78 cells were labelled by preincubation with ECECF-AM stain (Molecular Probes). Assays were conducted in a final volume of 200 μl. The adhesion of HUT 78 cells to MAdCAM-1/mCk fusion protein bound to wells via rat anti-mCk capture antibody was assessed in the presence or absence of each compound. […] Percent inhibition and IC50 values were determined.
HUT 78 cells (a human T cell lymphoma line; American Type Culture Collection, Accession No. ATCC TIB 161) were maintained in culture for up to one month in RPMI 1640 supplemented with 10% FCS, 20 mM HEPES, and Pen-Strep (1:100). Just prior to use in adhesion assays, cells were labeled with BCECF-AM as follows: 1×10^7 cells were pelleted at 1000 rpm for 10 minutes and resuspended in 25 mL cold PBS (Phosphate Buffered Saline). The cells were pelleted again, resuspended in cold PBS, and pelleted again. The cell pellet was resuspended in 25 ml PBS and labeled with 50 μl BCECF-AM (1 μg/μL in DMSO) for 30 minutes at 37° C. (BCECF-AM; 2′,7′-bis-(2-carboxyethyl)-5-(and-6)-carboxyflourescein, acetoxymethyl ester). The labeled cells were pelleted at 700 rpm for 10 minutes, resuspended in 25 ml cold Assay Buffer and pelleted.
The assay was performed in a 96-well format. Plates were coated overnight at 4° C. with 53 μl/well of a 5 μg/mL solution of rat anti-mCk in carbonate buffer. The plates were blocked for 1 hour at 37° C. with 100 μL/well of 1% BSA in PBS. The BSA/PBS solution was removed, and 50 μL of MAdCAM-mCk supernatant was added neat to each well. The assay was conducted under conditions in which capture antibody was the limiting reagent.
Cell adhesion was measured in the presence or absence of compounds. The compounds were resuspended in 100% DMSO, subsequently diluted 1:10 in water, and finally diluted again 1:10 in the assay: 50 μL of 2X Assay Bufler, 30 μL water, 20 μL of compound were added to each well. […] Cell adhesion occurred in 30 minutes at ambient temperature, after which plates were washed with 50 mM Tris/2 mM MnCl2, pH 7.2 using an EL 404 Microplate Autowasher (BIO-TEK Instruments) using the following wash parameters: wash volume=500 μL; two wash cycles; wash depth=80; aspirating after each wash.
Additional determinations were conducted as needed, so that each IC50 was determined over a range which encompassed the IC50. Over this range, Four different concentrations were tested in duplicate.
For each compound, a ratio was determined as follows: An average of the readings from duplicate wells was divided by an average of eight control wells (adhesion in the absence of any compound). […] In addition, the concentration (μM) of compound used was plotted against the resulting ratios.
The IC50 was then determined using Kaleidograph software (Abelbeck Software). The complete procedure was repeated again using duplicate wells for each point.

[1] = HuT78, 500 μM compound, HUT 78 cells, Mn2+ activated, read-out: % Adhesion Inhibition 500 μM

Compound | % Adhesion Inhibition 500 μM (HUT 78 cells, Mn2+ activated) [%] | IC50 (read-out: IC50) [µM] | also measured
Ac-Arg-Val-His-Trp-Arg-Gly-Leu-Asp-Thr-Ser-Leu-Gly-Ser-Val-Gln (Ac-RVHWRGLDTSLGSVQ; not fully specified (C-terminus); printed as Ac-Arg-Val-His-Trp-Arg-Gly-Leu-Asp-Thr-Ser-Leu-Gly-Ser-Val-Gln) [Example 62] | 88 | – | –
CC(C)C[C@H](NC(=O)[C@H](CO)NC(=O)[C@@H](NC(=O)[C@H](CC(=O)O)NC(=O)[C@H](CC(C)C)NC(=O)C(c1ccccc1)c1ccccc1)[C@@H](C)O)C(N)=O [Example 31, Dpa-Leu-Asp-Thr-Ser-Leu] | – | 11 | –
Ac-His-Trp-Arg-Gly-Leu-Asp-Thr-Ser-Leu-Gly-Ser-Val (Ac-HWRGLDTSLGSV; not fully specified (C-terminus); printed as Ac-His-Trp-Arg-Gly-Leu-Asp-Thr-Ser-Leu-Gly-Ser-Val) [Example 61] | 71 | – | –
CC(C)C[C@H](NC(=O)[C@H](CO)NC(=O)[C@@H](NC(=O)[C@H](CC(=O)O)NC(=O)[C@H](CC(C)C)NC(=O)C1C(C)(C)C1(C)C)[C@@H](C)O)C(N)=O [Example 25, Tpc-Leu-Asp-Thr-Ser-Leu] | – | 121 | inhibition at 500 µM [1]: 39%
CC(C)C[C@H](NC(=O)[C@H](CO)NC(=O)[C@@H](NC(=O)[C@H](CC(=O)O)NC(=O)[C@H](CC(C)C)NC(=O)c1cc(-c2ccccc2)cc(-c2ccccc2)c1)[C@@H](C)O)C(N)=O [Example 32, Dphb-Leu-Asp-Thr-Ser-Leu] | – | 15 | –
NH2-Trp-Arg-Gly-Leu-Asp-Thr-Ser-Leu-Gly-Ser (H-WRGLDTSLGS; not fully specified (C-terminus); printed as NH2-Trp-Arg-Gly-Leu-Asp-Thr-Ser-Leu-Gly-Ser) [Example 55] | 76 | – | –
CC(=O)N(C)[C@@H](CC(C)C)C(=O)N[C@@H](CC(=O)O)C(=O)N[C@H](C(=O)N[C@@H](CO)C(=O)N[C@@H](CC(C)C)C(N)=O)[C@@H](C)O [Example 49, Ac-MeLeu-Asp-Thr-Ser-Leu] | – | 150 | –
CC(=O)N[C@@H](CCCNC(=N)N)C(=O)NCC(=O)N[C@@H](CC(C)C)C(=O)N[C@@H](CC(=O)O)C(=O)N[C@H](C(=O)N[C@@H](CO)C(=O)N[C@@H](CC(C)C)C(N)=O)[C@@H](C)O [Example 8, Ac-Arg-Gly-Leu-Asp-Thr-Ser-Leu] (Ac-RGLDTSL-NH2) | – | – | inhibition at 500 µM [1]: 35%
CC(C)C[C@H](NC(=O)[C@H](CO)NC(=O)[C@@H](NC(=O)[C@H](CC(=O)O)NC(=O)[C@H](CC(C)C)NC(=O)Cc1ccc2ccc3cccc4ccc1c2c34)[C@@H](C)O)C(N)=O [Example 29, Paa-Leu-Asp-Thr-Ser-Leu] | – | – | IC50 (IC50 (μM)): 0.5 µM
CC(=O)N(C)[C@@H](CC(C)C)C(=O)N[C@@H](CC(C)C)C(=O)N[C@@H](CC(=O)O)C(=O)N[C@H](C(=O)N[C@@H](CO)C(=O)N[C@@H](CC(C)C)C(N)=O)[C@@H](C)O [Example 17, Ac-MeLeu-Leu-Asp-Thr-Ser-Leu] (Ac-[NMeL]LDTSL-NH2) | – | – | inhibition at 500 µM [1]: 28%
NH2-Leu-Asp-Thr-Ser-Leu (H-LDTSL; not fully specified (C-terminus); printed as NH2-Leu-Asp-Thr-Ser-Leu) [Example 54] | 22 | – | –
CC(C)C[C@H](NC(=O)[C@H](CO)NC(=O)[C@@H](NC(=O)[C@H](CC(=O)O)NC(=O)[C@H](CC(C)C)NC(=O)Cc1cccc2ccccc12)[C@@H](C)O)C(N)=O [Example 21, Npa-Leu-Asp-Thr-Ser-Leu] | – | 548 | inhibition at 500 µM [1]: 39%
CC(C)C[C@H](NC(=O)[C@H](CO)NC(=O)[C@@H](NC(=O)[C@H](CC(=O)O)NC(=O)[C@H](CC(C)C)NC(=O)[C@@H]1CCCN1C(=O)CCCc1ccc2ccc3cccc4ccc1c2c34)[C@@H](C)O)C(N)=O [Example 30, Pba-Pro-Leu-Asp-Thr-Ser-Leu] ({Butanoyl(4-pyren-1-yl)}-PLDTSL-NH2) | – | – | IC50 (IC50 (μM)): 47 µM
CCCCCCCc1ccc(C(=O)N[C@@H](CC(C)C)C(=O)N[C@@H](CC(=O)O)C(=O)N[C@H](C(=O)N[C@@H](CO)C(=O)N[C@@H](CC(C)C)C(N)=O)[C@@H](C)O)cc1 [Example 22, Hbz-Leu-Asp-Thr-Ser-Leu] | – | 401 | inhibition at 500 µM [1]: 51%
CC(C)C[C@H](NC(=O)[C@H](CO)NC(=O)[C@@H](NC(=O)[C@H](C)NC(=O)[C@H](CC(C)C)NC(=O)CCCc1ccc2ccc3cccc4ccc1c2c34)[C@@H](C)O)C(N)=O [Example 39, Pba-Leu-Ala-Thr-Ser-Leu] ({Butanoyl(4-pyren-1-yl)}-LATSL-NH2) | – | – | inhibition at 250 µM (HuT78, read-out: % Adhesion Inhibition): 100%; IC50 (IC50 (μM)): 28 µM
Ac-Leu-Asp-Thr-Ser-Leu (Ac-LDTSL; not fully specified (C-terminus); printed as Ac-Leu-Asp-Thr-Ser-Leu) [Example 58] | 71 | – | –
CC(=O)N[C@H]1CSSC[C@@H](C(N)=O)NC(=O)CNC(=O)[C@H](CC(C)C)NC(=O)[C@H](CO)NC(=O)[C@H]([C@@H](C)O)NC(=O)[C@H](CC(=O)O)NC(=O)[C@H](CC(C)C)NC(=O)CNC1=O [Example 5] (Ac-CGLDTSLGC-NH2; disulfide 1-9) | – | – | inhibition at 200 µM (HuT78, @200 μM compound, HUT 78 cells): 45%
CC(C)C[C@H](NC(=O)[C@H](CO)NC(=O)[C@@H](NC(=O)[C@H](CC(=O)O)NC(=O)[C@H](CC(C)C)NC(=O)c1ccc2cc3ccccc3cc2c1)[C@@H](C)O)C(N)=O [Example 38, 2-Anc-Leu-Asp-Thr-Ser-Leu] | – | 5.4 | –
Ac-Lle-Asp-Thr-Ser-Leu [Example 46] | 17 | – | –
CC(C)C[C@H](NC(=O)[C@H](CO)NC(=O)[C@@H](NC(=O)[C@H](CC(=O)O)NC(=O)[C@H](CC(C)C)NC(=O)Cc1ccccc1)[C@@H](C)O)C(N)=O [Example 26, Pha-Leu-Asp-Thr-Ser-Leu] | – | – | inhibition at 500 µM (HuT78, read-out: % Adhesion Inhibition 500 μM): 38%; IC50 (IC50 (μM)): 2130 µM
Ac-Trp-Arg-Gly-Leu-Asp-Thr-Ser-Leu-Gly-Ser (Ac-WRGLDTSLGS; not fully specified (C-terminus); printed as Ac-Trp-Arg-Gly-Leu-Asp-Thr-Ser-Leu-Gly-Ser) [Example 60] | 71 | – | –
C[C@@H](O)[C@H](NC(=O)[C@H](CC(=O)O)NC(=O)c1ccc2ccc3cccc4ccc1c2c34)C(N)=O [Example 52, Pca-Asp-Thr] | – | 11 | –
NH2-His-Trp-Arg-Gly-Leu-Asp-Thr-Ser-Leu-Gly-Ser-Val (H-HWRGLDTSLGSV; not fully specified (C-terminus); printed as NH2-His-Trp-Arg-Gly-Leu-Asp-Thr-Ser-Leu-Gly-Ser-Val) [Example 56] | 80 | – | –
MeLeu-Leu-Asp-Thr-Ser-Leu ([NMeL]LDTSL) [Example 27] | 54 | 256 | –
CC(C)C[C@H](NC(=O)[C@H](CO)NC(=O)[C@@H](NC(=O)[C@H](CC(=O)O)NC(=O)[C@H](CC(C)C)NC(=O)Cc1ccc(-c2ccccc2)cc1)[C@@H](C)O)C(N)=O [Example 20, Bipa-Leu-Asp-Thr-Ser-Leu] | – | 485 | inhibition at 500 µM [1]: 54%
CC(C)C[C@H](NC(=O)[C@H](CO)NC(=O)[C@@H](NC(=O)[C@H](CC(=O)O)NC(=O)[C@H](CC(C)C)NC(=O)CCCCCc1ccccc1)[C@@H](C)O)C(N)=O [Example 18, Phx-Leu-Asp-Thr-Ser-Leu] | – | 818 | inhibition at 500 µM [1]: 32%
